# Source: US20250241906A1, “ANABOLIC DRUGS STIMULATING TYPE II COLLAGEN PRODUCTION FROM CHONDROCYTES OR THEIR PROGENITORS” (UNIVERSITY OF CENTRAL FLORIDA RESEARCH FOUNDATION, INC., priority 2022, published 2025)
# Tests used:
# [1] = test system: type II collagen promoter (COL2A1-GLuc) in primary rabbit chondrocytes; test: COL2A1-GLuc primary rabbit chondrocyte 3D aggregate luciferase assay; assay type: cell-based; conditions: day 21; for luminescence: basal media alone ~40,000 RLU; for luminescence with a single vitamin or mineral vs basal media alone: one factor at a time
# Protocol: Chondrogenic Culture. Rabbit COL2A1-GLuc were thawed and seeded in growth media at 6000 cells/cm^2 and expanded to 90-100% confluence in physioxia. Cells were trypsinized (0.25% Trypsin/EDTA; Corning), resuspended in basal chondrogenic media (93.24% High-Glucose DMEM (Gibco), 1% dexamethasone 10^−5 M (Sigma), 1% ITS+premix (Becton-Dickinson), 1% Glutamax (Hyclone), 1% 100 mM Sodium Pyruvate (Hyclone), 1% MEM Non-Essential Amino Acids (Hyclone), 0.26% L-Ascorbic Acid Phosphate 50 mM (Wako), 0.5% Fungizone (Life Technologies) with TGF-β1 (Peprotech) and seeded as described below.
# Generation and Maintenance of 3D Aggregates. To generate 3D aggregates, cells were seeded at 50,000 cells per well (in 96-well cell repellent u-bottom plates, GreinerBio) and then centrifuged at 500 RCF, 5 min. For the TGF-β1 dose response studies, that serve as positive controls for the reporter cells, aggregates were cultured in basal chondrogenic media and different concentrations of TGF-β1 ranging from 0-10 ng/ml. For the DoE studies, aggregates were cultured in basal chondrogenic media (1 ng/ml TGF-β1) as a control or basal media supplemented with vitamins and minerals (Table 3 and Table 5). Plates were cultured for three weeks in physioxia, media was sampled and replaced three times a week with respective medium. An OT-2 (Opentrons) python coded robotic pipette, programmed at an aspiration height of 2 mm from the bottom of the wells and aspiration rate of 40 μl/s was utilized for media preparation, cell feeding, and media sampling for luciferase assay. After three weeks, cell aggregates were either fixed in neutral buffered formalin for histology or medium removed and aggregates frozen dry (−20° C.) for biochemical assays.
# Luciferase Assay. Cell culture medium sampled from the seeded 96-wells (20 μL/well) was assessed using a stabilized Gaussia Luciferase buffer at a final concentration of 0.09 M MES, 0.15M Ascorbic Acid, and 4.2 μM Coelenterazine in white 96-well plates. Luminescence was measured in a plate reader (25° C., relative light units, En Vision plate reader). An OT-2 (Opentrons) python coded robotic pipette was utilized for luciferase buffer addition to white plates (GreinerBio).
# [2] = test system: type II collagen promoter (COL2A1-Gaussia luciferase) in primary human chondrocytes; test: HuCol2gLuc 3D aggregate type II collagen promoter-driven Gaussia luciferase assay; assay type: cell-based; conditions: for stimulation of type II collagen production in the screen of natural products: NCI Natural Products Set V, 5 μM continuously, 22-day assay
# Protocol: Chondrogenic Culture. Human COL2A1-GLuc or uninfected cells were thawed and seeded in growth media on synoviocyte matrix at 6,000 cells/cm^2 and expanded to 90-100% confluence in physioxia. Cells were trypsinized (0.25% Trypsin/EDTA; Corning), resuspended in growth media (for monolayer culture) or chondrogenic differentiation media for 3D aggregates (93.24% High-Glucose DMEM (Gibco), 1% dexamethasone 10^−5M (Sigma), 1% ITS+premix (Becton-Dickinson), 1% Glutamax (Hyclone), 1% 100 mM Sodium Pyruvate (Hyclone), 1% MEM Non-Essential Amino Acids (Hyclone), 0.26% L-Ascorbic Acid Phosphate 50 mM (Wako), 0.5% Fungizone (Life Technologies) with TGF-β1 (Peprotech) and seeded as described below.
# Generation and Maintenance of 3D aggregates. To generate 3D aggregates, cells were seeded at 50,000 cells per well (in 96-well cell repellent u-bottom plates, GreinerBio) and then centrifuged at 500 RCF, 5 min. For the initial drug screen, aggregates were cultured in basal chondrogenic media (1 ng/ml TGF-β1) alone, with DMSO (vehicle control) or 5 μM of the drug compounds from the NCI library (Natural Products V, NCI). For candidate validation and subsequent studies aggregates were cultured in basal chondrogenic media (10 ng/ml TGF-β1) alone, with DMSO (vehicle control) or compounds as indicated in the results. Aggregates were cultured for three weeks in physioxic conditions, culture medium was sampled and replaced three times a week with fresh medium. An OT-2 (Opentrons) python coded robotic pipette, programmed at an aspiration height of 2 mm from the bottom of the wells and aspiration rate of 40 μl/s was utilized for addition of compound, cell feeding, and media sampling for luciferase assay. After three weeks, cell aggregates were either fixed in neutral buffered formalin for histology or medium removed and aggregates frozen dry (−20° C.) for biochemical assays.
# Luciferase Assay. Conditioned culture medium sampled from aggregates in 96-wells (20 μL/well) was assessed using a stabilized Gaussia Luciferase buffer mix (50 µl/well) for a final concentration of 0.09 M MES, 0.15M Ascorbic Acid, and 4.2 μM Coelenterazine in white 96-well plates. Luminescence was measured in a plate reader (25° C., relative light units (RLU), En Vision plate reader). An OT-2 (Opentrons) python coded robotic pipette was utilized for luciferase buffer addition to white plates (GreinerBio).
# HuCol2gLuc aggregates = test: Biochemical assays (DNA, GAG, total collagen) on HuCol2gLuc aggregates; assay type: cell-based, human
# Protocol: Biochemical Assays. Aggregates frozen at day 22, were thawed with PBS, and digested with Papain (25 μg/ml, Sigma, P4762, in 2 mM cysteine; 50 mM sodium phosphate; 2 mM EDTA at a pH 6.5, 100 μl) at 65° C. overnight. Plates were sealed with a qPCR adhesive sealing film (USA Scientific), a silicone sheet, and steel plates clamped to the plate to prevent evaporation during digestion. Half of the digest (50 μl) was transferred to another plate and frozen for hydroxyproline assessment. In the remaining digest, papain was inactivated with 0.1M sodium hydroxide (NaOH, 50 μl) followed by NaOH neutralization (100 mM Na2HPO4, 0.1 N HCL, pH 1.82, 50 μl). To quantitate DNA content, samples of the neutralized digest (20 μl) were combined with buffered Hoechst dye (#33258, 667 ng/ml, phosphate buffer pH 8, 100 μl) and fluorescence measured at an excitation of 365 nm and emission of 460 nm. For GAG assessment, 1,9-Dimethyl-methylene blue solution (195 μl) was added to neutralized digests (5 μl) and absorbance measured at 595 nm and 525 nm. Readings were corrected by subtracting 595 nm reading from 525 nm. Micrograms of DNA and GAG were calculated using a Calf thymus DNA standard (Sigma) or Chondroitin Sulfate standard (Seikagaku Corp.), respectively.
# For hydroxyproline (HP) quantification, the frozen digests (50 μl) were thawed at room temperature and incubated overnight at 105° C. with 6M hydrochloric acid (200 μl). Plates were sealed to prevent evaporation. Samples were then dried at 70° C. overnight with a hydroxyproline standard (Sigma). Copper sulfate (0.15 M, 10 μl) and NaOH (2.5 M, 10 μl) were added to each well and incubated at 50° C. for 5 minutes, followed by hydrogen peroxide (6%, 10 μl) for 10 minutes. Sulfuric acid (1.5 M, 40 μl) and Ehrlich's reagent (20 μl) were added and samples incubated at 70° C. for 15 minutes. Absorbance was measured at 505 nm. Micrograms of hydroxyproline were calculated using the standard. Total collagen was calculated by the following formula (μg of HP×7.6=μg Total Collagen).
# rat knee = conditions: cited from earlier work
molecule,measurement,setting,value
[Cu] [Copper],luminescence,[1],"~40,000 RLU"
"COC(=O)[C@H]1[C@H]2C[C@@H]3c4[nH]c5ccccc5c4CCN3C[C@H]2C[C@@H](OC(=O)c2cc(OC)c(OC)c(OC)c2)[C@@H]1OC [Drug 204, Deserpidine, reference compound]",stimulation of type II collagen production in the screen of natural products,[2]; listed as 204,stimulatory effects
same,stimulation of type II collagen production in the screen of natural products,[2]; listed as Deserpidine,stimulate type II collagen
same,day 22 luminescence normalized to DMSO vehicle control,"[2]; screen, 5 μM, 1 ng/ml TGF-β1",significant increase in luminescence
same,trend of luminescence over 22 days normalized to DMSO,"[2]; screen, 5 μM, 1 ng/ml TGF-β1",initial decrease in expression with continued increase in luminescence after day 8
same,cumulative luminescence,"[2]; validation, donor 1",no significant increase
same,luminescence over 22 days vs untreated control,"[2]; validation, donor 1, 10 ng/ml TGF-β1",increase in luminescence
same,luminescence over 22 days vs untreated control,"[2]; validation, donor 2, 10 ng/ml TGF-β1",not donor 2
same,glycosaminoglycan (GAG) content,"HuCol2gLuc aggregates; day 22, donor 1",no effect on GAG
same,total collagen,"HuCol2gLuc aggregates; day 22, donor 1",no significant increase in total collagen
same,DNA content,"HuCol2gLuc aggregates; day 22, donor 2, vs untreated",significant decrease in DNA content
same,glycosaminoglycan (GAG) content,"HuCol2gLuc aggregates; day 22, donor 2, untreated 15 μg",10 µg
same,total collagen,"HuCol2gLuc aggregates; day 22, donor 2, untreated ~14 μg",no significant increase in total collagen
"CC(C)CC(=O)Nc1cncc(-c2ccc3[nH]nc(-c4nc5cncc(-c6cccc(F)c6)c5[nH]4)c3c2)c1 [SM04690, reference compound]",in vivo scaled amount,rat knee,0.3 μg/rat knee
"O=C(O)CCCC[C@@H]1SC[C@@H]2NC(=O)N[C@@H]21 [Vitamin B7, Biotin]",luminescence,[1],"~40,000 RLU"
same,luminescence with a single vitamin or mineral vs basal media alone,[1],higher luminescence
"[Cr] [chromium, Chromium]",luminescence with a single vitamin or mineral vs basal media alone,[1],higher luminescence
"[Co] [cobalt, Cobalt]",luminescence with a single vitamin or mineral vs basal media alone,[1],higher luminescence
"N[C@@H](Cc1cc(I)c(Oc2cc(I)c(O)c(I)c2)c(I)c1)C(=O)O [thyroxine, Thyroxine]",luminescence with a single vitamin or mineral vs basal media alone,[1],higher luminescence
Vitamin A,luminescence with a single vitamin or mineral vs basal media alone,[1],detrimental to chondrogenesis
"FGF18: growth factor cited for dose scaling (protein, UniProt O76093 28-207, looked up) Fibroblast growth factor 18: EENVDFRIHVENQTRARDDVSRKQLRLYQLYSRTSGKHIQVLGRRISARGEDGDKYAQLLVETDTFGSQVRIKGKETEFYLCMNRKGKLVGKPDGTSKECVFIEKVLENNYTALMSAKYSGWYVGFTKKGRPRKGPKTRENQQDVHFMKRYPKGQPELQKPFKYTTVTKRSRRIRPTHPA",in vivo rat knee efficacy,rat knee,3-5 μg/knee
